Data as given in patent US11926580B2, “Hydropersulfide precursors” (THE JOHNS HOPKINS UNIVERSITY, priority 2018, dated 2024).
Values joined by “and” are separate entries in the source; they are usually repeats but may differ in a detail not shown here. Equal values may be shown once.

Experiments:
[1] = UPLC-MS analysis of RSSH trapping with N-ethylmaleimide; type: physicochemical; conditions: for RSSH generation (RSS-NEM adduct formation): NEM trap
Procedure: FIGS. 2a and 2b provide graphs of (a) UPLC-MS chromatograms of RSSH generation from 4d (200 μM) in the presence of NEM (4 mM) incubated in pH 7.4 ammonium bicarbonate (100 mM) with DTPA (100 μM) at 37° C. A peak at 3.7 min corresponding to N-ethylmaleamic acid (NEMA), derived from NEM hydrolysis, was observed under these conditions (see SI); (b) MS spectrum (ESI+ mode) of the product eluting at 5.06 min corresponding to 5a with m/z 349.0885 (expected m/z 349.0886).
FIG. 5 provides a graph of UPLC-MS chromatograms of RSSH generation from compound 1 (1 mM) in the presence of NEM (5 mM) incubated in pH 7.4 ammonium bicarbonate buffer containing DTPA (100 μM) for 30 min at 37° C. The asterisk indicates the methyl ester analogue of dialkyl trisulfide 2, which was also formed due to the presence of minor amount of methyl ester analogue of 1. A peak at 3.7 min corresponding to N-ethylmaleamic acid (NEMA), derived from NEM hydrolysis, was observed under these conditions.
RSSH trapping in the presence of N-ethylmaleimide (NEM) was carried out with a Waters Acquity/Xevo-G2 UPLC-MS system equipped with an ACQUITY UPLC BEH C18 column (2.1 mm×50 mm, 1.7 μm). Typically, RSSH precursor (1 eq) was incubated with NEM (5 to 20 eq) in freshly prepared pH 7 4 ammonium bicarbonate buffer (100 mM) containing DTPA (100 μM) at 37° C. An aliquot of the reaction mixture (300 μL) was withdrawn at specified time points, quenched with 0.25% formic acid (300 μL), and filtered through a 0.22 μm filter. The samples were then loaded into vials in an autosampler maintained at 4° C. and analyzed using UPLC-MS as follows: Mobile phase: 0-1 min 90% water+0% ACN+10% formic acid (0.1%); 1-7.5 min gradient up to 10% water+80% ACN+10% formic acid (0.1%); 7.5-8.4 min 10% water+80% ACN+10% formic acid (0.1%); 8.4-8.5 min gradient up to 90% water+0% ACN+10% formic acid (0.1%), 8.5-10 min 90% water+0% ACN+10% formic acid (0.1%). Flow rate=0.3 mL min^−1. The mass signals for products of RSSH trapping with NEM were obtained via deconvolution using MassLynx 4.1 software.
To a solution of NEM (5 mM) in pH 7 4 ammonium bicarbonate (100 mM) with DTPA (100 μM) in a 20-mL scintillation vial, hydropersulfide precursor 1 (1 mM, total reaction volume 3 mL) was added. The resulting mixture was incubated at 37° C. for 30 min. An aliquot of 300 μL reaction mixture was withdrawn, quenched with 300 μL of formic acid (0.25%) and analyzed using UPLC-MS.

[2] = Kinetics of RSSH generation by 1H NMR with NEM trapping; type: physicochemical; conditions: 10% D2O, 37° C.; for half-life at 1 mM: phosphate buffer, NEM, pH 7.4 buffer, read-out: half-life of precursor; for t1//2 (mm) / Hydropersulfide Yield (%) (RSS-NEM adduct): precursor 1 mM, NEM 20 mM, pH 7.4 phosphate buffer; for Hydropersulfide Yield (%) (RSS-NEM adduct): based upon % precursor consumed
Procedure: FIGS. 3a and 3b provide graphs of (a) Stacked ^1H NMR spectra showing the decomposition of precursor 4d (1 mM) with NEM (20 mM) in 10% D2O, phosphate buffer (PB), pH 7.4 at 37° C. to produce RSS-NEM adduct 5a; Precursor 4d was introduced to a solution of NEM in PB at t=0 min and following equilibration and shimming, the first 1H NMR spectrum was obtained after 6 min.; and (b) The kinetics of decomposition of 4d (circles represent the —CH3 protons (Ha) of the precursor) and formation of 5a (squares represent the diasterotopic protons (Hb) of the succinimide ring of the two product diastereomers).
Next, ^1H NMR spectroscopy was used to monitor the kinetics of RSSH generation from 4d by trapping with NEM in 10% D2O, pH 7.4 buffer containing DMSO as an internal standard at 37° C. An increase in the peak intensity attributed to one of the diasterotopic protons of the succinimide ring of the two product diastereomers (Hb, δ2.99-2.91 ppm) was observed (FIG. 3a). The other diasterotopic proton (Hc, δ3.30-3.21 ppm) overlaps with N-ethylmaleamic acid (NEMA), a product derived from NEM hydrolysis. Similarly, the intensity of two methyl group protons of precursor 4d (δ1.44 and 1.41 ppm) decreased as four methyl group protons of the two diastereomers of 5a (Ha, δ1.40, 1.37 ppm and 1.40, 1.34 ppm) increased, supporting the clean conversion of 4d to 5a. The ^1H NMR peak assignments for 5a are consistent with the RSS-NEM adduct formed during S-methoxycarbonyl penicillamine disulfide (MCPD) decomposition (Scheme 1, eq. 3) in the presence of NEM.
All starting materials were of reagent grade and used without further purification. N-acetyl-D-penicillamine, N-ethylmaleimide, N-ethylmaleamic acid, and phenylcyanamide were purchased from Sigma-Aldrich and used without further purification. Thiourea and N-substituted thioureas were purchased from Alfa Aesar and Oakwood Chemicals. Deuterated solvents (Cambridge Isotope Laboratories) were used for NMR spectroscopic analyses. NMR spectra were obtained on a 400 MHz FT-NMR spectrometer. All chemical shifts are reported in parts per million (ppm) relative to residual CHCl3 (7.26 ppm for ^1H, 77.2 ppm for ^13C), residual H2O (4.79 ppm for ^1H), residual DMSO (2.50 ppm for ^1H, 39.5 for ^13C), or residual MeOH (3.31 ppm for ^1H, 49.2 ppm for ^13C). The kinetics of RSSH generation were measured using a Varian Inova 800 MHz spectrometer. UPLC-MS analysis was carried out with a Waters Acquity/Xevo-G2 UPLC-MS system equipped with an ACQUITY UPLC BEH C18 column (2.1 mm×50 mm, 1.7 μm). The mass signals for products of hydropersulfide trapping with NEM were obtained via deconvolution using MassLynx 4.1 software. The pH measurements were performed using a Fisher Scientific Accumet AB15 pH-meter. Analytical thin layer chromatography (TLC) was performed on Sigma-Aldrich silica gel on TLC A1 foils with fluorescent indicator F254 plates. Visualization was accomplished with UV light (254 nm) or staining with KMnO4. Flash column chromatography was performed using SiliaFlash P60 (230-400 mesh) silica gel. Melting points were recorded using MEL-TEMP® capillary melting point apparatus and are uncorrected.

[3] = as above; type: physicochemical; conditions: pH 7.4 buffer with 20% MeOD
cardiomyocyte H9c2 cells [4] = experiment: Cytoprotection against hydrogen peroxide-induced cytotoxicity; type: cell-based; conditions: pretreatment 2 h (4d 50 μM; phenyl cyanamide 200 μM), then H2O2 200 μM 2 h, CCK-8
Procedure: (§1) FIGS. 6a and 6b provide graphs of (a) the cell viability of cardiomyocyte H9c2 cells following incubation of the RSSH precursor 4d (50 μM) and phenylcynamide (200 μM) for 24 h; and (b) the cytoprotective effects of the RSSH precursor 4d observed following pretreatment of H9c2 cells with either 4d (50 μM) or phenylcynamide (200 μM) for 2 h, followed by hydrogen peroxide (200 μM) treatment for 2 h. Quantification of cell viability was carried out using Cell Counting Kit-8 (CCK-8). Results are expressed as the mean±SEM (n=6).
Since hydropersulfides are reported to mitigate oxidative stress, the ability of RSSH precursor 4d to protect cardiomyocyte H9c2 cells from cytotoxicity induced by hydrogen peroxide (H2O2) was tested.

cardiomyocyte H9c2 cells [5] = experiment: Cytotoxicity / cell viability assay with Cell Counting Kit-8; type: cell-based; conditions: up to 200 μM, 24 h, CCK-8
Procedure: as §1
The cytotoxicity and impact on cell viability of the hydropersulfide (RSSH) precursor 4d have been examined using the cardiomyocyte H9C2 cell line and Cell Counting Kit-8 (CCK-8). A cell viability assay reveled that 4d was not cytotoxic at 50 μM ([…]).

| Structure (SMILES) | melting point | RSSH generation (RSS-NEM adduct formation) ([1]; pH 7.4 buffer, 37° C., UPLC-MS) | half-life at 1 mM [2] | t1//2 (mm) [2] | Hydropersulfide Yield (%) (RSS-NEM adduct) [2] | further results |
| --- | --- | --- | --- | --- | --- | --- |
| CC(=O)NC(CSSC(=N)N)C(=O)O.Cl (centres unmarked) [Precursor 1, ((2-acetamido-2-carboxyethyl)disulfaneyl)(amino)methaniminium chloride] | 70 to 72 °C | no evidence of persulfide-NEM adduct formation |  |  |  | disappearance of precursor ([1]; 1 mM with NEM 5 mM, pH 7.4 buffer, 37° C., 30 min): complete disappearance |
| CC(=O)NC(C(=O)O)C(C)(C)SSC(=N)N.Cl (centres unmarked) [Precursor 4a, ((1-acetamido-1-carboxy-2-methylpropan-2-yl)disulfaneyl)(amino)methaniminium chloride] | 154 to 156 °C | formation of RSS-NEM 5a |  |  |  |  |
| CNC(=N)SSC(C)(C)C(NC(C)=O)C(=O)O.Cl (centres unmarked) [Precursor 4b, ((1-acetamido-1-carboxy-2-methylpropan-2-yl)disulfaneyl)(methylamino) methaniminium chloride] | 153 to 155 °C | reduced compared with that from 4a |  |  |  |  |
| COC(=O)C(NC(C)=O)C(C)(C)SSC(=N)N.Cl (centres unmarked) [Precursor 4c, ((3-acetamido-4-methoxy-2-methyl-4-oxobutan-2-yl)disulfaneyl)(amino)methaniminium chloride] | 190 to 192 °C |  |  |  |  | RSS-NEM adduct 5b yield ([1]; decomposition in the presence of NEM, UPLC-MS): less than 50% |
| COc1ccc(NC(=N)SSC(C)(C)C(NC(C)=O)C(=O)O)cc1.Cl (centres unmarked) [Precursor 4e, ((1-acetamido-1-carboxy-2-methylpropan-2-yl)disulfaneyl)((4-methoxyphenyl)amino) methaniminium chloride] | 142 to 144 °C |  | 5 min | 5.0 ± 0.5 min | 75% and 75 ± 2% |  |
| CC(=O)NC(C(=O)O)C(C)(C)SSC(=N)Nc1ccccc1Cl.Cl (centres unmarked) [Precursor 4f, ((1-acetamido-1-carboxy-2-methylpropan-2-yl)disulfaneyl)((2-chlorophenyl)amino) methaniminium chloride] | 152 to 154 °C |  | 17.3 min | 173 ± 0.4 min | 95% and 95 ± 2% |  |
| CC(=O)NC(C(=O)O)C(C)(C)SSC(=N)Nc1ccc(Cl)cc1.Cl (centres unmarked) [Precursor 4g, ((1-acetamido-1-carboxy-2-methylpropan-2-yl)disulfaneyl)((4-chlorophenyl)amino) methaniminium chloride] | 143 to 145 °C |  | 9.3 min | 9.3 ± 0.6 min | 91% and 91 ± 1% |  |
| CC(=O)NC(C(=O)O)C(C)(C)SSC(=N)Nc1ccc(C(F)(F)F)cc1.Cl (centres unmarked) [Precursor 4h, ((1-acetamido-1-carboxy-2-methylpropan-2-yl)disulfaneyl)((4-(trifluoromethyl)phenyl)amino)methaniminium chloride] | 151 to 153 °C |  |  |  |  | Hydropersulfide Yield (%) (RSS-NEM adduct) ([3]; NEM, 37° C.): 95% and 95 ± 2^d %; t1//2 (mm) ([3]; NEM, 37° C.): 6.8 ± 0.2 min; half-life ([3]; pH 7.4, read-out: half-life of precursor): 6.8 min |
| CC(C)(C)SSC(=N)Nc1ccccc1.Cl [Precursor 9, (t-butyldisulfaneyl)(phenylamino)methaniminium chloride] |  |  | 17.3 min |  | 97% |  |
| N#CNc1ccccc1 [phenyl cyanamide, reference compound] |  |  |  |  |  | cytoprotection from H2O2-induced cytotoxicity (cardiomyocyte H9c2 cells [4]): did not protect; tolerability (cell viability) (cardiomyocyte H9c2 cells [5]): well tolerated |
